This note sets out measurements from patent US5574059A, “Treating disorders mediated by vascular smooth muscle cell proliferation” (priority 1995, dated 1996).

The test system of one experiment is I2 imidazoline receptors. The experiment in a line: inhibition of 3H-idazoxan (5 nM) binding to rat aortic smooth muscle cell membranes. The settings on record: Table 2; 3H-idazoxan 5 nM; rat aortic smooth muscle cell membranes; read-out: Ki. On the procedure:
Binding to I2 imidazoline receptors is determined by the following assay. Membranes are prepared from cultured cells for ligand binding as described in Regunathan, S., et al, Biochem. Pharmacol. 45, 1667-1675 (1993) and Regunathan, S., et al, J. Neurosci. Res. 34, 681-688 (1993) and the disclosure in these on this is incorporated herein by reference. In particular, harvested rat aortic smooth muscle cells are homogenized in Hepes-sucrose buffer (pH 7.4) with a Teflon-glass homogenizer and centrifuged at 1000 × g for 10 minutes. The pellets are suspended in ice-cold Tris-HCl buffer (pH 7.7) with 5mM ethylene diamine tetracetic acid and homogenized using a Polytron (Brinkman Instruments) for 10 seconds. The homogenate is centrifuged at 40,000 × g for 30 minutes to produce a membrane pellet. The membrane pellet is washed three times by resuspending in buffer and re-centrifuging. The washed pellet is suspended in fresh Tris-HCl buffer (pH 7.4) to provide approximately 100 μg protein per assay tube. Binding assays are performed in Tris-HCl buffer (pH 7.7) using 5 nM of […]. Non-specific binding is defined by 100 μM of unlabelled idazoxan which will inhibit the specific binding of ^3 H-idazoxan. Thus the binding remaining in the presence 100 μM of idazoxan is due to non-specific binding and this will be substracted from total binding to calculate the specific binding. Following incubation at 25° C. for 30 minutes, reaction is terminated by rapid vacuum filtration over Whatman GF/B filters and washed with 10 ml of ice-cold buffer. Filters are suspended in scintillation fluid and radioactivity counted in a liquid scintillation counter. Membrane protein is assayed by Coomassie Blue method (Pierce) using bovine serum albumin as standard.
Determination of inhibition constant (Ki) for each drug is determined as follows: The binding of ^3 H-idazoxan to membranes of vascular smooth muscle cells is determined in the presence of 0.1 nM to 100 μM concentrations of potential drug. The percent inhibition of specific binding of ^3 H-idazoxan by each concentration is calculated and plotted against concentration. The data is analyzed by non-linear curve fitting program, LIGAND and the IC50 value for each potential drug is calculated. The affinity for each drug (Ki) for I2 imidazoline receptors is calculated using the formula Ki =IC50 /1+L/Kd where L is the concentration of ^3 H-idazoxan used for binding and Kd is the dissociation constant for ^3 H-idazoxan for I2 imidazoline receptors. The dissociation constant (Kd) is determined by Scatchard analysis of the saturation binding of ^3 H-idazoxan using the formula [formula] where B and F are the amount of bound and free ligand, respectively, and Bmax is the number of binding sites.
Primary cultures of rat-aortic smooth muscle cells were prepared by a modification (described in Erlinge, Do, et al, Am. J. Physiol. 265, H1089-1097, 1993) of the method of Meyer-Lehnert and Schrier (Meyer-Lehnert, H., et al, Hypertension 13,350-361, 1989), the disclosure of these cited articles being incorporated herein by reference. Briefly, rats were killed by anesthetic overdose and the aorta were removed and incubated with collagenase (2 mg/ml) in Dulbecco's modified Eagle's minimum essential medium (DMEM). The vessel was stripped of adventitia, cut longitudinally and the intima scraped away. After further collagenase treatment, the remaining tissue was passed 20 times through 18 and 16 gauge needles. The resulting cell suspension was centrifuged at 500 × g for 5 minutes and resuspended in DMEM containing penicillin (100 units/ml), streptomycin (100 μg/ml), 2 mM L-glutamine and 10% fetal calf serum. The suspended cells were plated in T-75 flasks, cultured until confluent, and subcultured in 100 mm plates. The confluent cells were harvested and membranes were prepared. Cell viability was determined by trypan blue exclusion.

Experiment [1] can be described thus: Example V: patient with Type I diabetes mellitus, overgrowth of retinal vessels. The format is in vivo, human. The settings on record: idazoxan 75 mg/day; UK 14,304 60, naphazoline 125, cirazoline 60, agmatine 900 mg/day. The text has this:
A person with Type I diabetes mellitus and maintained on insulin presents with progressive symptoms of loss of visual acuity bilaterally with evidence on opthalmascopic examination of overgrowth of retinal vessels and hemorrhages.

Experiment [2] in a line: Example III: patient with coronary artery disease, angioplasty. The format is in vivo, human. The settings on record: idazoxan 50 mg/day continued for 3 months; substitutes, dose not stated. On the procedure:
A person presents with the onset of chest pain on exertion. […] Ten days before angioplasty, the patient is begun on 75 or 100 mg/day of idazoxan. […] Treatment with 50 mg/day idazoxan is continued for 3 months.

In experiment [3] the test system is rat aortic smooth muscle cells. The experiment in a line: serum-stimulated proliferation, 3H-thymidine incorporation into DNA. The settings on record: for IC50: Rattus norvegicus, read-out: 3H-thymidine incorporated (IC50). The format is cell-based. The protocol: Inhibition of serum-stimulated proliferation of rat aortic smooth muscle cells is determined as follows: The antiproliferative effect of potential drug is determined by measuring the incorporation of ^3 H-thymidine into cellular DNA. Exposure of quiescent vascular smooth muscle cell to serum, which contains many growth factors, results in a large increase in cellular proliferation as measured by ^3 H-thymidine incorported into DNA. The inhibitory effect of potential drug on serum-stimulated proliferation is tested by adding a drug before the addition of serum and determining if the serum-stimulated proliferation is reduced. […] In that event, antagonizing of the antiproliferative effect of idazoxan is determined by adding antagonist before the addition of idazoxan to serum-stimulated vascular smooth muscle cells.
In this experiment, the proliferation of vascular smooth muscle cells was determined by measuring DNA replication. The incorporation of ^3 H-thymidine into DNA was used to measure the replication of DNA as described in Erlinge, D., et al, Am. J. Physiol. 265, H1089-H1097 (1993) which is incorporated herein by reference.
Rat aortic smooth muscle cells prepared as described in In Vitro Example 1 were plated into 24-well plates at a density of about 30,000 cells/well in 10% fetal calf serum (FCS). After 48 hours, the cells were starved in 0.5% FCS for another 48 hours to decrease proliferation and induce quiescence. The medium was replaced by serum-free medium 24 hours prior to addition of drug (drugs are described below) and 10% fetal calf serum or only 10% fetal calf serum in the case of the control. The cells were then incubated for 24 hours and ^3 H-thymidine (1 μCi/well) was added at hour 20. At the end of the 24 hour period, the medium was aspirated and the cells were washed three times with phosphate-buffered saline and twice with ice-cold trichloroacetic acid. Fixed cells were then solubilized in 0.2M NaOH and sonicated. A 100 μl aliquot was used for scintillation counting.

Experiment [4] can be described thus: Example I: patient with intermittent claudication, iliac artery plaques. The settings on record: over 30 days oral; idazoxan 50 and 75 mg/day, UK 14,304 125, naphazoline 125, cirazoline 75, agmatine 900 mg/day. It counts as in vivo, human. The text has this:
A person presents with progressive symptoms of intermittent claudication in both legs.

Experiment [5] is described as follows: Example IV: patient with fibromuscular dysplasia of the renal artery, angioplasty. The format is in vivo, human. Conditions: idazoxan 75 mg/day; UK 14,304 60, naphazoline 125, cirazoline 60, agmatine 900 mg/day.
Experiment [6] can be described thus: Example II: patient with narrowing of right common carotid artery, balloon angiography. It counts as in vivo, human. Conditions: idazoxan 50 or 75 mg/day two weeks before and 3 months after balloon angiography; UK 14,304 125, cirazoline 60, naphazoline 125, agmatine 900 mg/day. On the procedure:
A person presents with a history of intermittent brief episodes of transient monocular blindness in the right eye associated with clumsiness and weakness of the left arm and leg. Angiography indicates substantial narrowing of the right common carotid artery. They are with treated with idazoxan at a dosage of 50 or 75 mg/day for two weeks preceding balloon angiography and for 3 months thereafter.

Setting [7] is: 10% fetal calf serum stimulated.

SMILES strings stand for the structures. Like-named read-outs stand apart in the source and are kept apart here.

Consider `Brc1c(NC2=NCCN2)ccc2nccnc12` [UK 14,304, 5-bromo-N-(4,5-dihydro-1-H-imidazol-2-yl)-6-quinoxalinamine], for which, in the experiment on I2 imidazoline receptors, the Ki was found to be 0.02 ± 0.0014 µM. Further, the “progression and visual symptoms” value in experiment [1] is “comparable results, i.e., no restenosis”. In addition, in experiment [2], the “symptoms / restenosis after angioplasty” value is recorded as “comparable results, i.e., no restenosis”. Moreover, the “inhibition of vascular smooth muscle cell proliferation, in words” value in experiment [3] (setting [7]) was “potently inhibited”. Besides, the IC50 in experiment [3] (10% fetal calf serum stimulated, 24 h) turned out to be 15.6 ± 2.8 µM. Moreover, the “symptoms of intermittent claudication” value in experiment [4] is listed as “stabilization of symptoms”. Besides, in experiment [5], the “re-elevation of pressure / restenosis of the renal artery” value is “comparable results, i.e., no restenosis”. Moreover, the “symptoms and restenosis of the vessel” value in experiment [6] is on record as “comparable results”.
Take `NCCCCN=C(N)N` [Agmatine, 4-(aminobutylguanidine)]: the Ki in the experiment on I2 imidazoline receptors was 0.24 ± 0.025 µM. Besides, the “progression and visual symptoms” value in experiment [1] is on record as “comparable results, i.e., no restenosis”. Further, the “symptoms / restenosis after angioplasty” value in experiment [2] was “comparable results, i.e., no restenosis”. Further, the “inhibition of vascular smooth muscle cell proliferation, in words” value in experiment [3] (setting [7]) was “weakly inhibited”. Further, the IC50 in experiment [3] was 340 ± 29 µM. In addition, the “symptoms of intermittent claudication” value in experiment [4] is “stabilization of symptoms”. Moreover, the “re-elevation of pressure / restenosis of the renal artery” value in experiment [5] is “comparable results, i.e., no restenosis”. Besides, in experiment [6], the “symptoms and restenosis of the vessel” value is “comparable results”.
